Laboratory results: patent US20230278987A1, “Antimicrobial Compounds and Methods” (Curza Global, LLC, priority 2019, published 2023)
Converted amounts (≈) assume the structure as drawn. Where a name gives a salt, the structure may show the parent alone. Read-outs that look alike come from different tables or passages of the source.

Assays:
[1] = tested on: E.coli S30 extract (bacterial protein synthesis); experiment: E.coli S30 extract: inhibition of bacterial protein synthesis (luciferase); format: biochemical; conditions: 37° C. for 1 hour
Method: E.coli S30 extract: Inhibition of bacterial protein synthesis was determined using the E.coli S30 Extract System for Circular DNA (Promega catalog #L-2010) and Luciferase Assay Reagent (Promega catalog #E1500) with slight modifications to a published protocol. Fyfe, C., Sutcliffe, J.A. and Grossman, T.H. (2012) “Development and characterization of a Pseudomonas aeruginosa in vitro coupled transcription-translation assay system for evaluation of translation inhibitors” J. Microbiol. Methods 90(3), 256-261.
Compounds were serial diluted in 0.5 mL microcentrifuge tubes by mixing and transferring 50 µL from the highest concentration to 50 µL of water, mixing and transferring 50 µL of this 2-fold dilution to 50 µL of water. This mixing and transferring was repeated so that there are a total of 8 tubes with serial dilutions of compound at 10× the desired screening concentration that are ultimately diluted to 1× by the addition of S30 luciferase synthesis mixture. Serial dilutions of compounds were added (2 µL) to wells in a black round bottom 96-well plate. Water (2 µL) was used as a “no inhibitor” control in 4 wells/plate. No DNA control reaction mixture (20 µL; see below) was used as a control in 4 wells/plate for background luminescence. S30 luciferase synthesis mixture (18 µL; see below) was added to wells with compounds or water mixture and incubated at 37° C. for 1 hour. Reactions were stopped by transferring to 4° C. refrigerator for 5 minutes then 25 µL of luciferase activity mix was added. Luminescence was measured using a BioTek Synergy HTX plate reader. % Inhibition was determined relative to no inhibitor controls.
S30 luciferase synthesis mixture: • 445 µL S30 extract, circular • 712 µL S30 Premix without amino acids • 4.45 µL pBESTluc™ DNA (1 µg/ µL) • 78 µL complete amino acid mixture • 267 µL water
No DNA control: • 20 µL S30 extract, circular • 32 µL S30 Premix without amino acids • 7 µL complete amino acid mixture • 21 µL water

[2] = tested on: P.aeruginosa (Pa); experiment: Broth microdilution MIC against P.aeruginosa (Pa); format: cell-based; conditions: for MIC: Pseudomonas aeruginosa, read-out: Pa +bicarb 25 (MIC)
Method: (§1) A certified BSL-2 laboratory was used for testing. Compounds were evaluated using the broth microdilution minimum inhibitory concentration (MIC) and minimum bactericidal concentration (MBC) assays defined by Clinical and Laboratory Standards Institute (CLSI) in the M26-A guideline against S.aureus (Sa), E.coli (Ec), K.pneumoniae (Kp), A.baumannii (Ab), E.faecalis (Ef) and P.aeruginosa (Pa).
(§2) MICs were determined using the Clinical Laboratory and Standards Institute (CLSI) Broth Microdilution Method with slight modification. Clinical and Laboratory Standards Institute (2012). “Methods for dilution antimicrobial susceptibility tests for bacteria that grow aerobically; approved standard, 9th ed. M07-A9. Clinical and Laboratory Standards Institute, Wayne, PA.” Serial two-fold dilutions of compounds are prepared in sterile clear roundbottom 96-well plates.
(§3) To prepare microdilution trays, two-fold dilutions of antimicrobial agent are prepared in growth medium: Cation-Adjusted Mueller-Hinton Broth (CAMHB), or CAMHB supplemented with sodium bicarbonate (6.25 or 25 mM final concentration prepared from a 1.0 M stock solution) or CAMHB supplemented with heat inactivated human serum (Fisher Cat. # BP2657100) 0-50% by adding 200 µL of the highest concentration to be tested (64 µg/mL, for example) in row A, mixing and transferring 100 µL from row A to 100 µL growth medium in row B, then repeating the mixing and transferring through row H of the 96-well plate, discarding the excess 100 µL remaining. This slight modification to the CLSI protocol enables evaluation of MICs for 3 compounds per plate in triplicate, albeit with only 8 compound dilutions (CLSI protocol enables 2 compounds in triplicate with 10 dilutions). Bacterial suspensions are added to a final concentration of 5 × 10^4 CFU/well by adding 5 µL of a 1:10 dilution of a 0.5 McFarland suspension (1 × 10^8 CFU/mL) for each bacterium evaluated. Bacterial suspensions were prepared using the growth method described by CLSI. Well-isolated colonies (3-5 from an agar plate) were selected using a sterile loop and used to inoculate a tube containing 4 mL of CAMHB. The cultures are incubated at 35 ± 2° C. until it achieves or exceeds the turbidity of the 0.5 McFarland standard, determined by measuring A600nm (usually two to six hours). When growth exceeds a 0.5 McFarland standard, the turbidity is adjusted with broth to be equivalent to a 0.5 McFarland standard.

[3] = tested on: E.coli (Ec); experiment: Broth microdilution MIC against E.coli (Ec); format: cell-based; conditions: for MIC: Escherichia coli
Method: as §1, §2, §3

[4] = target: Rabbit Reticulocyte Lysate (eukaryotic protein synthesis); experiment: Rabbit Reticulocyte Lysate: inhibition of eukaryotic protein synthesis (luciferase); format: biochemical; conditions: 30° C. for 90 minutes, read-out: retic. IC50
Method: Inhibition of eukaryotic protein synthesis was determined using the Rabbit Reticulocyte Lysate System, Nuclease-Treated from Promega (catalog #L-4960) with slight modifications to the manufacturer’s protocol. Compounds were serial diluted in 0.5 mL microcentrifuge tubes by mixing and transferring 50 µL from the highest concentration to 50 µL of water, mixing and transferring 50 µL of this 2-fold dilution to 50 µL of water. This mixing and transferring was repeated so that there are a total of 8 tubes with serial dilutions of compound at 10× the desired screening concentration that are ultimately diluted to 1× by the addition of rabbit reticulocyte luciferase synthesis mixture. Serial dilutions of compounds were added (2.5 µL) to wells in a black round bottom 96-well plate. Water (2.5 µL) was used as a “no inhibitor” control in 4 wells/plate. No RNA control reaction mixture (2 µL; see below) was used as a control in 4 wells/plate for background luminescence. Rabbit reticulocyte luciferase synthesis mixture (22.5 µL; see below) was added to wells with compounds or water mixture and incubated at 30° C. for 90 minutes. Luciferase assay reagent (25 µL) was added with luminescence measured using a BioTek Synergy HTX plate reader. % Inhibition was determined relative to no inhibitor controls.
Rabbit reticulocyte luciferase synthesis mixture: • 1,000 µL rabbit reticulocyte lysate • 5.7 µL Luciferase Control RNA (1 µg/ µL) • 26 µL complete amino acid mixture • 395 µL water
No RNA Control • 70 µL rabbit reticulocyte lysate • 2 µL complete amino acid mixture • 28 µL water

[5] = tested on: E.faecalis (Ef); experiment: Broth microdilution MIC against E.faecalis (Ef); format: cell-based; conditions: Enterococcus faecalis, read-out: Ef +bicarb 25 (MIC)
Method: as §1, §2, §3

[6] = tested on: S.aureus (Sa); experiment: Broth microdilution MIC against S.aureus (Sa); format: cell-based; conditions: Staphylococcus aureus, read-out: Sa + bicarb 25 (MIC)
Method: as §1, §2, §3

[7] = tested on: A.baumannii (Ab); experiment: Broth microdilution MIC against A.baumannii (Ab); format: cell-based; conditions: for MIC: Acinetobacter baumannii, read-out: Ab +bicarb 25 (MIC)
Method: as §1, §2, §3

[8] = CAMHB supplemented with sodium bicarbonate 25 mM
[9] = CAMHB supplemented with sodium bicarbonate 25 mM, read-out: E.coli + bicarb 25 (MIC)
[10] = read-out: E.coli + bicarb 25 (MIC)

Compound	IC50 [1]	MIC [2, 8]	MIC [3, 9]	IC50 [4]	MIC [5, 8]	MIC [6, 8]	MIC [7, 8]	Pa +bicarb 25 (MIC) [2, 8]	E.coli + bicarb 25 (MIC) [3, 8]	MIC ([3]; read-out: E. coli + bicarb 6.25 (MIC))	MIC [5]	MIC [6]	Ab +bicarb 25 (MIC) [7, 8]	MIC [2]	MIC [3, 10]	MIC [7]
CC(C)(N)C(=O)N1CCN(C(=O)Nc2ccn(-c3ccc4c(c3)CCC(N[C@H]3CC[C@H](N)CC3)C4)c(=O)n2)CC1 (stereo partly drawn) [Compound 7]	< 500 nM	> 32 µg/mL	< 8 µg/mL	≥ 1000 nM	< 8 µg/mL	< 8 µg/mL	> 32 µg/mL									
CC(C)(N)C(=O)N1CCN(C(=O)Nc2ccn(-c3ccc4c(c3)CCC(NC3CC5(CC(N)C5)C3)C4)c(=O)n2)CC1 (stereo not drawn) [Compound 8]	< 500 nM	8 to 32 µg/mL (≈ 14.2 to 56.9 µM)	< 8 µg/mL	≥ 1000 nM	< 8 µg/mL	< 8 µg/mL	8 to 32 µg/mL (≈ 14.2 to 56.9 µM)									
CC(C)(N)C(=O)N1CCN(C(=O)Nc2ccn(-c3ccc4c(c3)CCC(N[C@H]3CC[C@H](N)C3)C4)c(=O)n2)CC1 (stereo partly drawn) [Compound 9, 4-(2-amino-2-methylpropanoyl)-N-(1-(6-(((1S,3S)-3-aminocyclopentyl)amino)-5,6,7,8-tetrahydronaphthalen-2-yl)-2-oxo-1,2-dihydropyrimidin-4-yl)piperazine-1-carboxamide hydrochloride salt]	< 500 nM			≥ 1000 nM				+ (An MIC value (µg/mL) that is 32 µg/mL or greater)	+++ (An MIC value (µg/mL) that is less than 8 µg/mL)	< 8 µg/mL	< 8 µg/mL	< 8 µg/mL	+ (An MIC value (µg/mL) that is 32 µg/mL or greater)			
CN(C1CCc2cc(-n3ccc(NC(=O)N4CCN(C(=O)C(C)(C)N)CC4)nc3=O)ccc2C1)C1CC2(CC(N)C2)C1 (stereo not drawn) [Compound 11]	500 to 1000 nM	> 32 µg/mL	< 8 µg/mL	≥ 1000 nM	< 8 µg/mL	< 8 µg/mL	> 32 µg/mL									
CC(C)(N)C(=O)N1CCN(C(=O)Nc2ccn(-c3ccc4c(c3)OCC(N3C[C@@H]5[C@@H](CN)[C@@H]5C3)C4)c(=O)n2)CC1 (stereo partly drawn) [Compound 12, exo-4-(2-amino-2-methylpropanoyl)-N-(1-(3-(-6-(aminomethyl)-3-azabicyclo[3.1.0]hexan-3-yl)chroman-7-yl)-2-oxo-1,2-dihydropyrimidin-4-yl)piperazine-1-carboxamide hydrochloride salt]	≥ 1000 nM	> 32 µg/mL	< 8 µg/mL	≥ 1000 nM	> 32 µg/mL	8 to 32 µg/mL	> 32 µg/mL									
CC(C)(N)C(=O)N1CCN(C(=O)Nc2ccn(-c3ccc4c(c3)OCC(N3C[C@@H]5[C@@H](N)[C@@H]5C3)C4)c(=O)n2)CC1 (stereo partly drawn) [Compound 13, Hydrochloride Salt]	≥ 1000 nM	8 to 32 µg/mL	8 to 32 µg/mL	≥ 1000 nM	8 to 32 µg/mL	8 to 32 µg/mL	8 to 32 µg/mL									
CC(C)(N)C(=O)N1CCN(C(=O)Nc2ccn(-c3ccc4c(c3)OCC(N3CC[C@@H](CN)C3)C4)c(=O)n2)CC1 (stereo partly drawn) [Compound 14]	≥ 1000 nM	8 to 32 µg/mL (≈ 14.9 to 59.4 µM)	< 8 µg/mL	≥ 1000 nM	8 to 32 µg/mL (≈ 14.9 to 59.4 µM)	< 8 µg/mL	8 to 32 µg/mL (≈ 14.9 to 59.4 µM)									
CN(C1CCc2cc(-n3ccc(NC(=O)N4CCN(C(=O)C(C)(C)N)CC4)nc3=O)ccc2C1)[C@H]1CC[C@H](N)CC1 (stereo partly drawn) [Compound 15, 4-(2-amino-2-methylpropanoyl)-N-(1-(6-(((1r,4r)-4-aminocyclohexyl)(methyl)amino)-5,6,7,8-tetrahydronaphthalen-2-yl)-2-oxo-1,2-dihydropyrimidin-4-yl)piperazine-1-carboxamide hydrochloride salt]	< 500 nM	8 to 32 µg/mL	< 8 µg/mL	≥ 1000 nM	< 8 µg/mL	< 8 µg/mL	8 to 32 µg/mL									
CCN(C1CCc2cc(-n3ccc(NC(=O)N4CCN(C(=O)C(C)(C)N)CC4)nc3=O)ccc2C1)[C@H]1CC[C@H](N)CC1 (stereo partly drawn) [Compound 16, 4-(2-Amino-2-methylpropanoyl)-N-(1-(6-(((trans)-4-aminocyclohexyl)(ethyl)amino)-5,6,7,8-tetrahydronaphthalen-2-yl)-2-oxo-1,2-dihydropyrimidin-4-yl)piperazine-1-carboxamide hydrochloride salt]	< 500 nM			≥ 1000 nM							< 8 µg/mL	< 8 µg/mL		8 to 32 µg/mL	< 8 µg/mL	8 to 32 µg/mL
CC(C)(N)C(=O)N1CCN(C(=O)Nc2ccn(-c3ccc4c(c3)CCC(N(CC3CC3)[C@H]3CC[C@H](N)CC3)C4)c(=O)n2)CC1 (stereo partly drawn) [Compound 17, 4-(2-Amino-2-methylpropanoyl)-N-(1-(6-(((trans)-4-aminocyclohexyl)(cyclopropylmethyl)amino)-5,6,7,8-tetrahydronaphthalen-2-yl)-2-oxo-1,2-dihydropyrimidin-4-yl)piperazine-1-carboxamide hydrochloride salt]	500 to 1000 nM			≥ 1000 nM							< 8 µg/mL	< 8 µg/mL		8 to 32 µg/mL	< 8 µg/mL	8 to 32 µg/mL
CC(C)(N)C(=O)N1CCN(C(=O)Nc2ccn(-c3ccc4c(c3)OCC(N3CC[C@H](CN)C3)C4)c(=O)n2)CC1 (stereo partly drawn) [Compound 18]	≥ 1000 nM	8 to 32 µg/mL (≈ 14.9 to 59.4 µM)	< 8 µg/mL	≥ 1000 nM	8 to 32 µg/mL (≈ 14.9 to 59.4 µM)	< 8 µg/mL	8 to 32 µg/mL (≈ 14.9 to 59.4 µM)									
